Like-named read-outs stand apart in the source and are kept apart here.

Holding throughout (test): Cellular cytotoxicity of compounds of Formula I, Example 3.1
Common to all, as to format: cell-based

Assay [1] concerns Human gastric carcinoma cell line NCI-N87. The settings on record: five nights, CellTiter-Glo. Here is the method:
(§1) Compounds were tested on one or more of Human T-cell leukemia cell line Jurkat (ATCC: TIB-152); Human breast cancer cell lines HCC1954 (ATCC: CRL-2338) and JIMT-1 (DSMZ: ACC 589); Human Pancreatic cell line BxPC-3 (ATCC: CRL.1687), Human ovarian adenocarcinoma cell line SK-OV-3 (ATCC: HTB-77) and Human gastric carcinoma cell line NCI-N87 (ATCC: CRL. 5822); to assess their cytotoxicity.
(§2) Briefly, cells were obtained from commercial sources and cultured as described in the product sheet provided. Cells were removed from their culture vessels and the resulting cell suspension was counted using a ViCell (Beckman Coulter), then seeded at 25,000 cells/mL (2,500 cells/well) in Costar 3904 black walled, flat bottomed 96-well plates (cells were seeded in the inner 60 wells of 96-well TC plates, and outer edge wells filled with water). Adherent cell lines were incubated for one night at 37° C./5% CO2 atmosphere to allow the cells to attach to the microtiter plate surface, while suspension (Jurkat) cells were plated immediately before use. Cytotoxins were dissolved and serially diluted in dimethyl sulfoxide and then the solutions were added to complete growth medium at five-times the desired maximum final concentration. The cytotoxins were then titrated in growth medium, normally 1:3, over eight steps. A control with no test article present (growth medium alone) was included on each microtiter plate in sextuplicate. The prepared toxin titrations were added (25 μL/well) in triplicate to each cell line assayed. The cells and titrations were incubated at 37° C./5% CO2 for three nights (Jurkat) and five nights (all other cell lines). After the incubation, cell viability was measured using CellTiter-Glo® by adding 30 μL of prepared CellTiter-Glo® reagent to each assay well. The mixtures were incubated for at least twenty minutes in the dark prior to measuring emitted luminescence using a microplate luminometer (500 ms integration time). The collected relative luminescence units (RLU) were converted to % cytotoxicity using the growth medium alone control mentioned above (% Cytotoxicity=1-[well RLU/average medium alone control RLU]×100%).
(Cellular ATP, detected with luciferase, serves as a proxy for viable cell number.)

Assay [2] has as its system Human T-cell leukemia cell line Jurkat. Conditions: Homo sapiens, Jurkat, read-out: EC50 (nM) Jurkat. Here is the method:
as §1, §2

For assay [3], the system named is Human Pancreatic cell line BxPC-3. Conditions: five nights, CellTiter-Glo. The protocol:
as §1, §2

One may read the EC50 as the concentration at which the effect is half-maximal. `CC[C@H](C)[C@@H]([C@@H](CC(=O)N1CCC[C@H]1[C@H](OC)[C@@H](C)C(=O)NS(=O)(=O)c1ccc(NC(=O)C(F)(F)F)cc1)OC)N(C)C(=O)[C@@H](NC(=O)[C@H]1CCCCN1C(C)C)C(C)C` [Compound 15, (R)-1-Isopropyl-N-((S)-1-(((3R,4S,5S)-3-methoxy-1-((S)-2-((1R,2R)-1-methoxy-2-methyl-3-oxo-3-((4-(2,2,2-trifluoroacetamido)phenyl)sulfonamido)propyl)pyrrolidin-1-yl)-5-methyl-1-oxoheptan-4-yl)(methyl)amino)-3-methyl-1-oxobutan-2-yl)piperidine-2-carboxamide]: the EC50 in assay [1] stood at 11.7 nM; in assay [2] (three nights, CellTiter-Glo), 10.1 nM; in assay [3], 14.5 nM.

For `CC[C@H](C)[C@@H]([C@@H](CC(=O)N1CCC[C@H]1[C@H](OC)[C@@H](C)C(=O)NS(=O)(=O)c1ccc(N)cc1)OC)N(C)C(=O)[C@@H](NC(=O)[C@H]1CCCCN1C(C)C)C(C)C` [Compound 16, (R)-N-((S)-1-(((3R,4S,5S)-1-((S)-2-((1R,2R)-3-((4-Aminophenyl)sulfonamido)-1-methoxy-2-methyl-3-oxopropyl)pyrrolidin-1-yl)-3-methoxy-5-methyl-1-oxoheptan-4-yl)(methyl)amino)-3-methyl-1-oxobutan-2-yl)-1-isopropylpiperidine-2-carboxamide], the EC50 in assay [1] worked out at 14.4 nM; in assay [2] (three nights, CellTiter-Glo) it was 11.5 nM; in assay [3], 17 nM.

`CC[C@H](C)[C@@H]([C@@H](CC(=O)N1CCC[C@H]1[C@H](OC)[C@@H](C)C(=O)NS(=O)(=O)c1ccc(N)cc1)OC)N(C)C(=O)[C@@H](NC(=O)C(C)(C)N)C(C)C` [Compound 17, (S)-2-(2-Amino-2-methylpropanamido)-N-((3R,4S,5S)-1-((S)-2-((1R,2R)-3-((4-aminophenyl)sulfonamido)-1-methoxy-2-methyl-3-oxopropyl)pyrrolidin-1-yl)-3-methoxy-5-methyl-1-oxoheptan-4-yl)-N,3-dimethylbutanamide]: the EC50 in assay [1] is > 100 nM; in assay [2] (three nights, CellTiter-Glo) it was 30.5 nM; in assay [3], > 100 nM.

Turning to `CC[C@H](C)[C@@H]([C@@H](CC(=O)N1CCC[C@H]1[C@H](OC)[C@@H](C)C(=O)NS(=O)(=O)c1ccc(N)cc1)OC)N(C)C(=O)[C@@H](NC(=O)[C@@H](NC)C(C)(C)c1ccccc1)C(C)C` [Compound 19, (S)-N-((3R,4S,5S)-1-((S)-2-((1R,2R)-3-((4-Aminophenyl)sulfonamido)-1-methoxy-2-methyl-3-oxopropyl)pyrrolidin-1-yl)-3-methoxy-5-methyl-1-oxoheptan-4-yl)-N,3-dimethyl-2-((S)-3-methyl-2-(methylamino)-3-phenylbutanamido)butanamide], the EC50 was found to be 12.8 nM in assay [1]; 2.2 nM in assay [2] (three nights, CellTiter-Glo); 10.2 nM in assay [3].

Regarding `CC[C@H](C)[C@@H]([C@@H](CC(=O)N1CCC[C@H]1[C@H](OC)[C@@H](C)C(=O)NS(=O)(=O)c1ccc(N)cc1)OC)N(C)C(=O)[C@@H](NC(=O)[C@@H](NC)C(C)C)C(C)C` [Compound 20, (S)-N-((3R,4S,5S)-1-((S)-2-((1R,2R)-3-((4-Aminophenyl)sulfonamido)-1-methoxy-2-methyl-3-oxopropyl)pyrrolidin-1-yl)-3-methoxy-5-methyl-1-oxoheptan-4-yl)-N,3-dimethyl-2-((S)-3-methyl-2-(methylamino)butanamido)butanamide], the EC50 in assay [1] was > 300 nM; in assay [2] (three nights, CellTiter-Glo), > 100 nM; in assay [3] it was > 300 nM.

In the case of `CC[C@H](C)[C@@H]([C@@H](CC(=O)N1CCC[C@H]1[C@H](OC)[C@@H](C)C(=O)NS(=O)(=O)c1ccc(CNC(=O)C(F)(F)F)cc1)OC)N(C)C(=O)[C@@H](NC(=O)[C@H](C(C)C)N(C)C)C(C)C` [Compound 21, (S)-2-((S)-2-(Dimethylamino)-3-methylbutanamido)-N-((3R,4S,5S)-3-methoxy-1-((S)-2-((1R,2R)-1-methoxy-2-methyl-3-oxo-3-((4-((2,2,2-trifluoroacetamido)methyl)phenyl)sulfonamido)propyl)pyrrolidin-1-yl)-5-methyl-1-oxoheptan-4-yl)-N,3-dimethylbutanamide], the EC50 is > 300 nM in assay [1]; ~100 nM in assay [2] (three nights, CellTiter-Glo); > 100 nM in assay [3].

As for `CC[C@H](C)[C@@H]([C@@H](CC(=O)N1CCC[C@H]1[C@H](OC)[C@@H](C)C(=O)N[C@@H](Cc1ccccc1)C(=O)NS(=O)(=O)c1ccc(CNC(=O)C(F)(F)F)cc1)OC)N(C)C(=O)[C@@H](NC(=O)[C@H](C(C)C)N(C)C)C(C)C` [Compound 23, (S)-2-((S)-2-(Dimethylamino)-3-methylbutanamido)-N-((3R,4S,5S)-3-methoxy-1-((S)-2-((1R,2R)-1-methoxy-2-methyl-3-oxo-3-(((S)-1-oxo-3-phenyl-1-((4-((2,2,2-trifluoroacetamido)methyl)phenyl)sulfonamido)propan-2-yl)amino)propyl)pyrrolidin-1-yl)-5-methyl-1-oxoheptan-4-yl)-N,3-dimethylbutanamide], the EC50 in assay [1] came out at 11.3 nM; in assay [2], 11.8 nM; in assay [3] it was 17.2 nM.

In the case of `CC[C@H](C)[C@@H]([C@@H](CC(=O)N1CCC[C@H]1[C@H](OC)[C@@H](C)C(=O)N[C@@H](Cc1ccccc1)C(=O)NS(=O)(=O)c1ccc(CN)cc1)OC)N(C)C(=O)[C@@H](NC(=O)[C@H](C(C)C)N(C)C)C(C)C` [Compound 24, (S)-N-((3R,4S,5S)-1-((S)-2-((1R,2R)-3-(((S)-1-((4-(Aminomethyl)phenyl)sulfonamido)-1-oxo-3-phenylpropan-2-yl)amino)-1-methoxy-2-methyl-3-oxopropyl)pyrrolidin-1-yl)-3-methoxy-5-methyl-1-oxoheptan-4-yl)-2-((S)-2-(dimethylamino)-3-methylbutanamido)-N,3-dimethylbutanamide], the EC50 is > 100 nM in assay [1]; ~100 nM in assay [2] (three nights, CellTiter-Glo); > 100 nM in assay [3].

On to `CC[C@H](C)[C@@H]([C@@H](CC(=O)N1CCC[C@H]1[C@H](OC)[C@@H](C)C(=O)NS(=O)(=O)c1ccc(C2(NC(=O)C(F)(F)F)CC2)cc1)OC)N(C)C(=O)[C@@H](NC(=O)[C@H](C(C)C)N(C)C)C(C)C` [Compound 29, (S)-2-((S)-2-(Dimethylamino)-3-methylbutanamido)-N-((3R,4S,5S)-3-methoxy-1-((S)-2-((1R,2R)-1-methoxy-2-methyl-3-oxo-3-(4-(1-(2,2,2-trifluoroacetamido)cyclopropyl)phenylsulfonamido)propyl)pyrrolidin-1-yl)-5-methyl-1-oxoheptan-4-yl)-N,3-dimethylbutanamide], for which the EC50 in assay [2] (three nights, CellTiter-Glo) was 22.1 nM.

With `CC[C@H](C)[C@@H]([C@@H](CC(=O)N1CCC[C@H]1[C@H](OC)[C@@H](C)C(=O)NS(=O)(=O)c1ccc(C2(N)CC2)cc1)OC)N(C)C(=O)[C@@H](NC(=O)[C@H](C(C)C)N(C)C)C(C)C` [Compound 30, (S)-N-((3R,4S,5S)-1-((S)-2-((1R,2R)-3-(4-(1-Aminocyclopropyl)phenylsulfonamido)-1-methoxy-2-methyl-3-oxopropyl)pyrrolidin-1-yl)-3-methoxy-5-methyl-1-oxoheptan-4-yl)-2-((S)-2-(dimethylamino)-3-methylbutanamido)-N,3-dimethylbutanamide], the EC50 in assay [2] (three nights, CellTiter-Glo) was > 100 nM.

`CC[C@H](C)[C@@H]([C@@H](CC(=O)N1CCC[C@H]1[C@H](OC)[C@@H](C)C(=O)N[C@@H](Cc1ccccc1)C(=O)NS(=O)(=O)c1ccc(C2(NC(=O)C(F)(F)F)CC2)cc1)OC)N(C)C(=O)[C@@H](NC(=O)[C@H](C(C)C)N(C)C)C(C)C` [Compound 31, (S)-2-((S)-2-(Dimethylamino)-3-methylbutanamido)-N-((3R,4S,5S)-3-methoxy-1-((S)-2-((1R,2R)-1-methoxy-2-methyl-3-oxo-3-((S)-1-oxo-3-phenyl-1-(4-(1-(2,2,2-trifluoroacetamido)cyclopropyl)phenylsulfonamido)propan-2-ylamino)propyl)pyrrolidin-1-yl)-5-methyl-1-oxoheptan-4-yl)-N,3-dimethylbutanamide]: in assay [2], the EC50 came out at 31.1 nM.

As to `CC[C@H](C)[C@@H]([C@@H](CC(=O)N1CCC[C@H]1[C@H](OC)[C@@H](C)C(=O)N[C@@H](Cc1ccccc1)C(=O)NS(=O)(=O)c1ccc(C2(N)CC2)cc1)OC)N(C)C(=O)[C@@H](NC(=O)[C@H](C(C)C)N(C)C)C(C)C` [Compound 32, (S)-N-((3R,4S,5S)-1-((S)-2-((1R,2R)-3-((S)-1-(4-(1-Aminocyclopropyl)phenylsulfonamido)-1-oxo-3-phenylpropan-2-ylamino)-1-methoxy-2-methyl-3-oxopropyl)pyrrolidin-1-yl)-3-methoxy-5-methyl-1-oxoheptan-4-yl)-2-((S)-2-(dimethylamino)-3-methylbutanamido)-N,3-dimethylbutanamide], the concentration for a half-maximal effect (EC50) in assay [2] (three nights, CellTiter-Glo) is > 100 nM.
